Experimental data taken from ChEMBL document CHEMBL1681655, “Identification of a new series of non-peptidic NK3 receptor antagonists” (Bioorg Med Chem Lett, 2011).

Tests used:
Neuromedin-K receptor = biological target: T1, Neuromedin-K receptor (Homo sapiens, UniProt P29371); test: Displacement of [3H]Lu AE93103 from human NK3 receptor expressed in BHK cells; assay type: cell-based
T1 sequence (P29371 whole entry): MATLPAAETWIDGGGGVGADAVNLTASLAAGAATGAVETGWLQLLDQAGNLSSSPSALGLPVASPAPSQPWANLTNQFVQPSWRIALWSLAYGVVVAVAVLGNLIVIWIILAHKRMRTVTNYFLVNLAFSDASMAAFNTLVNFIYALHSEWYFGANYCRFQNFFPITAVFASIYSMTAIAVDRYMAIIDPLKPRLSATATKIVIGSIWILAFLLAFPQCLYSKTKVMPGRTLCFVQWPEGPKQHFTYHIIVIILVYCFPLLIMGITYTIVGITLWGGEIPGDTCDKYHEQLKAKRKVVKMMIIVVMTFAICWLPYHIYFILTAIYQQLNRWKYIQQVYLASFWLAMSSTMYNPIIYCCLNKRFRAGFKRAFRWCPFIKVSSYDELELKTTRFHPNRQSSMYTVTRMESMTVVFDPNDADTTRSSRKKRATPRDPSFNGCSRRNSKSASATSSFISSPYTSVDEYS

Liver microsomes = test: Intrinsic clearance in human liver microsomes; assay type: ADME, Microsome
[1] = Apparent permeability of the compound in human Caco2 cells; assay type: ADME, cell-based; settings: caco-2
Caco-2 = test: Efflux ratio of permeability from […] in human Caco2 cells; assay type: ADME, cell-based

For `CC(=O)NC1(c2ccccc2)CCN(C[C@@H]2C[C@@]2(C(=O)N(C)Cc2ccc(F)cc2)c2ccc(F)cc2)CC1`, the Ki (Neuromedin-K receptor) was 0.067 µM.
`CN(Cc1ccc(F)cc1)C(=O)[C@@]1(c2ccc(Cl)c(Cl)c2)C[C@H]1CN1CCN(C(=O)CN2CCCCCC2)CC1` gave a CL (Liver microsomes) of 15 L/min and a Ki (Neuromedin-K receptor) of 0.0087 µM.
`CC(=O)NC1(c2ccccc2)CCN(C[C@@H]2C[C@@]2(C(=O)N(C)Cc2ccc(F)cc2)c2cccc(F)c2)CC1` gave a Ki (Neuromedin-K receptor) of 0.14 µM.
For `CC(=O)NC1(c2ccccc2)CCN(CC2CC2(C(=O)N(C)Cc2cccs2)c2ccc(Cl)c(Cl)c2)CC1` (racemic), the Ki (Neuromedin-K receptor) was 0.07 µM.
`CC(=O)NC1(c2ccccc2)CCN(C[C@@H]2C[C@@]2(C(=O)N(C)Cc2ccc(F)cc2)c2ccc(F)c(F)c2)CC1` showed a Ki (Neuromedin-K receptor) of 0.047 µM.
Molecule `CC(=O)NC1(c2ccccc2)CCN(C[C@@H]2C[C@@]2(C(=O)N(C)Cc2ccc(F)cc2)c2ccc3c(c2)OCO3)CC1` has a Ki (Neuromedin-K receptor) of 0.14 µM.
Work on `COc1ccc(CN(C)C(=O)C2(c3ccc(Cl)c(Cl)c3)CC2CN2CCC(NC(C)=O)(c3ccccc3)CC2)cc1` (racemic) yielded a Ki (Neuromedin-K receptor) of 0.015 µM.
For `CN(Cc1ccc(F)cc1)C(=O)[C@@]1(c2ccc(Cl)c(Cl)c2)C[C@H]1CN1CCN(S(=O)(=O)N2CCCC2)CC1`, the CL (Liver microsomes) was greater than 20 L/min and the Ki (Neuromedin-K receptor) was 0.0058 µM.
For `CC(=O)NC1(c2ccccc2)CCN(CC2CC2(C(=O)N(C)Cc2cccc(C(F)(F)F)c2)c2ccc(Cl)c(Cl)c2)CC1` (racemic), the Ki (Neuromedin-K receptor) was 0.05 µM.
`CN(Cc1ccccc1)C(=O)[C@@]1(c2ccc(Cl)c(Cl)c2)C[C@H]1CN1CCC(NC(N)=O)(c2ccccc2)CC1` showed a Papp [1] of 6 nm/s, a Ratio (Caco-2) of 85 and a CL (Liver microsomes) of 2 L/min. For the same molecule, the Ki (Neuromedin-K receptor) was 0.012 µM.
With `CC(=O)NC1(c2ccccc2)CCN(C[C@@H]2C[C@@]2(C(=O)N(C)Cc2ccc(F)cc2)c2ccsc2)CC1` the Ki (Neuromedin-K receptor) was 0.11 µM.
With `CN(Cc1ccc(F)cc1)C(=O)[C@@]1(c2ccc(Cl)c(Cl)c2)C[C@H]1CN1CCN(C(=O)CN2CCCC2)CC1` the Papp [1] was 57 nm/s, the Ratio (Caco-2) was 3.5 and the CL (Liver microsomes) was 5.6 L/min. The Ki (Neuromedin-K receptor) was 0.012 µM.
With `COc1ccc([C@]2(C(=O)N(C)Cc3ccc(F)cc3)C[C@H]2CN2CCC(NC(C)=O)(c3ccccc3)CC2)cc1` the Ki (Neuromedin-K receptor) was 0.35 µM.
For `CC(=O)NC1(c2ccccc2)CCN(CC2CC2(C(=O)N(C)Cc2ccc(Cl)cc2)c2ccc(Cl)c(Cl)c2)CC1` (racemic), the Ki (Neuromedin-K receptor) was 0.011 µM.
In the case of `CC(=O)NC1(c2ccccc2)CCN(C[C@@H]2C[C@@]2(C(=O)N(C)Cc2ccc(F)cc2)c2cccc(Cl)c2)CC1`, the Ki (Neuromedin-K receptor) is reported as 0.032 µM.
`CSc1ccc(CN(C)C(=O)C2(c3ccc(Cl)c(Cl)c3)CC2CN2CCC(NC(C)=O)(c3ccccc3)CC2)cc1` (racemic) gave a Ki (Neuromedin-K receptor) of 0.028 µM.
For `CC(=O)NC1(c2ccccc2)CCN(CC2CC2(C(=O)N(C)Cc2cccc(Cl)c2)c2ccc(Cl)c(Cl)c2)CC1` (racemic), the Ki (Neuromedin-K receptor) was 0.024 µM.
`CC(=O)NC1(c2ccccc2)CCN(CC2CC2(C(=O)N(C)Cc2cc(Cl)cc(Cl)c2)c2ccc(Cl)c(Cl)c2)CC1` (racemic) gave a Ki (Neuromedin-K receptor) of 0.023 µM.
`CN(Cc1ccc(F)cc1)C(=O)[C@@]1(c2ccc(Cl)c(Cl)c2)C[C@H]1CN1CC(N2CCN(S(=O)(=O)N(C)C)CC2)C1` showed a CL (Liver microsomes) of 12 L/min and a Ki (Neuromedin-K receptor) of 0.0019 µM.
`CC(=O)NC1(c2ccccc2)CCN(CC2CC2(C(=O)N(C)Cc2cccc(F)c2)c2ccc(Cl)c(Cl)c2)CC1` (racemic) showed a Ki (Neuromedin-K receptor) of 0.012 µM.
Work on `CC(=O)NC1(c2ccccc2)CCN(CC2CC2(C(=O)N(C)Cc2ccc(Cl)cc2Cl)c2ccc(Cl)c(Cl)c2)CC1` (racemic) yielded a Ki (Neuromedin-K receptor) of 0.016 µM.
Molecule `CC(=O)NC1(c2ccccc2)CCN(C[C@@H]2C[C@@]2(C(=O)N(C)Cc2ccc(F)cc2)c2ccc(Cl)cc2)CC1` has a Ki (Neuromedin-K receptor) of 0.036 µM.
For `CC(=O)NC1(c2ccccc2)CCN(C[C@@H]2C[C@@]2(C(=O)N(C)Cc2ccc(F)cc2)c2ccc(C)c(C)c2)CC1`, the Ki (Neuromedin-K receptor) was 0.0073 µM.
Work on `COc1ccc(CN(C)C(=O)C2(c3ccc(Cl)c(Cl)c3)CC2CN2CCC(NC(C)=O)(c3ccccc3)CC2)c(OC)c1` (racemic) yielded a Ki (Neuromedin-K receptor) of 0.0059 µM.
Work on `CC(=O)NC1(c2ccccc2)CCN(C[C@H]2C[C@]2(C(=O)N(C)Cc2ccccc2)c2ccc(Cl)c(Cl)c2)CC1` yielded a Ki (Neuromedin-K receptor) of 0.083 µM.
`CC(=O)NC1(c2ccccc2)CCN(CC2CC2(C(=O)N(C)Cc2ccc(C(F)(F)F)cc2)c2ccc(Cl)c(Cl)c2)CC1` (racemic) showed a Ki (Neuromedin-K receptor) of 0.0046 µM.
`CC(=O)NC1(c2ccccc2)CCN(CC2CC2(C(=O)N(C)Cc2ccccc2F)c2ccc(Cl)c(Cl)c2)CC1` (racemic) gave a Ki (Neuromedin-K receptor) of 0.018 µM.
`CC(=O)NC1(c2ccccc2)CCN(C[C@@H]2C[C@]2(C(=O)N(C)Cc2ccc(F)cc2)c2cccs2)CC1` showed a Ki (Neuromedin-K receptor) of 0.093 µM.
With `COc1ccccc1CN(C)C(=O)C1(c2ccc(Cl)c(Cl)c2)CC1CN1CCC(NC(C)=O)(c2ccccc2)CC1` (racemic) the Ki (Neuromedin-K receptor) was 0.014 µM.
`CC(=O)NC1(c2ccccc2)CCN(C[C@@H]2C[C@@]2(C(=O)N(C)Cc2ccc(F)cc2)c2ccc(C#N)cc2)CC1` gave a Ki (Neuromedin-K receptor) of 0.27 µM.
Molecule `CC(=O)NC1(c2ccccc2)CCN(C[C@@H]2C[C@@]2(C(=O)N(C)Cc2ccc(F)cc2)c2cccc(C#N)c2)CC1` has a Ki (Neuromedin-K receptor) of 1.9 µM.
Molecule `COc1cccc(CN(C)C(=O)C2(c3ccc(Cl)c(Cl)c3)CC2CN2CCC(NC(C)=O)(c3ccccc3)CC2)c1` (racemic) has a Ki (Neuromedin-K receptor) of 0.033 µM.
In the case of `CC(=O)NC1(c2ccccc2)CCN(C[C@@H]2C[C@@]2(C(=O)N(C)Cc2ccc(F)cc2)c2cccc(C(F)(F)F)c2)CC1`, the Ki (Neuromedin-K receptor) is reported as 0.21 µM.
For `CC(=O)NC1(c2ccccc2)CCN(CC2CC2(C(=O)N(C)Cc2ccc(Cl)c(Cl)c2)c2ccc(Cl)c(Cl)c2)CC1` (racemic), the Ki (Neuromedin-K receptor) was 0.013 µM.
`CC(=O)NC1(c2ccccc2)CCN(C[C@@H]2C[C@@]2(C(=O)N(C)Cc2ccc(F)cc2)c2ccc(C)cc2)CC1` gave a Ki (Neuromedin-K receptor) of 0.037 µM.
`CC(=O)NC1(c2ccccc2)CCN(CC2CC2(C(=O)N(C)Cc2ccsc2)c2ccc(Cl)c(Cl)c2)CC1` (racemic) gave a Ki (Neuromedin-K receptor) of 0.014 µM.
Molecule `CC(=O)NC1(c2ccccc2)CCN(C[C@@H]2C[C@@]2(C(=O)N(C)Cc2ccc(F)cc2)c2ccc(C(F)(F)F)cc2)CC1` has a Ki (Neuromedin-K receptor) of 1 µM.
Work on `CC(=O)NC1(c2ccccc2)CCN(C[C@@H]2C[C@@]2(C(=O)N(C)Cc2ccc(F)cc2)c2cc(Cl)cc(Cl)c2)CC1` yielded a Ki (Neuromedin-K receptor) of 0.09 µM.
Molecule `CC(=O)NC1(c2ccccc2)CCN(C[C@@H]2C[C@@]2(C(=O)N(C)Cc2ccc(F)cc2)c2ccc(Cl)c(Cl)c2)CC1` has a Ki (Neuromedin-K receptor) of 0.0058 µM.
Molecule `CC(=O)NC1(c2ccccc2)CCN(CC2CC2(C(=O)N(C)Cc2ccccc2Cl)c2ccc(Cl)c(Cl)c2)CC1` (racemic) has a Ki (Neuromedin-K receptor) of 0.02 µM.
Molecule `COc1cccc([C@]2(C(=O)N(C)Cc3ccc(F)cc3)C[C@H]2CN2CCC(NC(C)=O)(c3ccccc3)CC2)c1` has a Ki (Neuromedin-K receptor) of 0.056 µM.
In the case of `COc1cc(CN(C)C(=O)C2(c3ccc(Cl)c(Cl)c3)CC2CN2CCC(NC(C)=O)(c3ccccc3)CC2)cc(OC)c1` (racemic), the Ki (Neuromedin-K receptor) is reported as 0.032 µM.
Work on `CC(=O)NC1(c2ccccc2)CCN(CC2CC2(C(=O)N(C)Cc2ccccc2C)c2ccc(Cl)c(Cl)c2)CC1` (racemic) yielded a Ki (Neuromedin-K receptor) of 0.0053 µM.
In the case of `CC(=O)NC1(c2ccccc2)CCN(CC2CC2(C(=O)N(C)Cc2ccc(C)cc2)c2ccc(Cl)c(Cl)c2)CC1` (racemic), the Ki (Neuromedin-K receptor) is reported as 0.0075 µM.
Work on `COc1ccc(CN(C)C(=O)C2(c3ccc(Cl)c(Cl)c3)CC2CN2CCC(NC(C)=O)(c3ccccc3)CC2)cc1OC` (racemic) yielded a Ki (Neuromedin-K receptor) of 0.067 µM.
For `CC(=O)NC1(c2ccccc2)CCN(CC2CC2(C(=O)N(C)Cc2cccc(Cl)c2Cl)c2ccc(Cl)c(Cl)c2)CC1` (racemic), the Ki (Neuromedin-K receptor) was 0.024 µM.
Molecule `CN(Cc1ccc(F)cc1)C(=O)[C@@]1(c2ccc(Cl)c(Cl)c2)C[C@H]1CN1CCN(CCN2CCOCC2)CC1` has a CL (Liver microsomes) of 4.3 L/min and a Ki (Neuromedin-K receptor) of 0.0037 µM.
`CC(=O)NC1(c2ccccc2)CCN(C[C@@H]2C[C@@]2(C(=O)N(C)Cc2ccc(F)cc2)c2cccc(C)c2)CC1` showed a Ki (Neuromedin-K receptor) of 0.04 µM.
Work on `CN(C)C(=O)NC1(c2ccccc2)CCN(C[C@@H]2C[C@@]2(C(=O)N(C)Cc2ccccc2)c2ccc(Cl)c(Cl)c2)CC1` yielded a CL (Liver microsomes) greater than 20 L/min and a Ki (Neuromedin-K receptor) of 0.0028 µM.
